According to US12601740B2 (priority 2021, dated 2026):
Values after ≈ are worked out from the molar mass of the structure shown.

How the values were obtained:
E. coli BAA 196 = experiment: MIC by phage T7 amplification ELISA, serial microdilution in urine; details: Escherichia coli, BAA196, 2 h
E. coli 15597 = experiment: as above; details: Escherichia coli, 15597, 2 h
E. coli BAA 2523 = experiment: as above; details: Escherichia coli, BAA2523, 2 h
E. coli BAA 197 = experiment: as above; details: Escherichia coli, BAA197, 2 h
E. coli O157:H7 = experiment: microbe, parasite or virus in culture; assay type: cell-based; details: Escherichia coli; E. coli strain O157:H7 in urine, ~1×10^6 cfu/mL, phage T7 amplification 2 hours at 37° C.
E. coli BAA 2471 = experiment: MIC by phage T7 amplification ELISA, serial microdilution in urine; details: Escherichia coli, BAA2471, 2 h
E. coli BAA 2340 = experiment: as above; details: Escherichia coli, BAA2340, 2 h
E. coli BAA 198 = experiment: as above; details: Escherichia coli, BAA198, 2 h
E. coli BAA 2452 = experiment: as above; details: Escherichia coli, BAA2452, 2 h

Row | Structure (SMILES) | MIC (E. coli BAA 196) | MIC (E. coli 15597) | MIC (E. coli BAA 2523) | MIC (E. coli BAA 197) | MIC (E. coli O157:H7) | MIC (E. coli BAA 2471) | MIC (E. coli BAA 2340) | MIC (E. coli BAA 198) | MIC (E. coli BAA 2452)
1 | CO/N=C(\C(=O)N[C@@H]1C(=O)N2C(C(=O)[O-])=C(C[N+]3(C)CCCC3)CS[C@H]12)c1csc(N)n1 [Cefepime] | 64 µg/mL (≈ 133 µM) | 8 µg/mL (≈ 16.6 µM) | 16 µg/mL (≈ 33.3 µM) | > 64 µg/mL | 8 µg/mL (≈ 16.6 µM) | > 256 µg/mL | 68 µg/mL (≈ 141 µM) | 64 µg/mL (≈ 133 µM) | 68 µg/mL (≈ 141 µM)
2 | CC(C)(O/N=C(\C(=O)N[C@@H]1C(=O)N2C(C(=O)[O-])=C(C[n+]3ccccc3)CS[C@H]12)c1csc(N)n1)C(=O)O [Ceftazidime] | > 64 µg/mL | 0.5 µg/mL (≈ 0.915 µM) | > 256 µg/mL | > 64 µg/mL | 256 µg/mL (≈ 468 µM) | > 256 µg/mL | > 64 µg/mL | > 64 µg/mL | 16 µg/mL (≈ 29.3 µM)
3 | CO/N=C(\C(=O)N[C@@H]1C(=O)N2C(C(=O)O)=C(CSc3nc(=O)c(=O)[nH]n3C)CS[C@H]12)c1csc(N)n1 [Ceftriaxone] | > 64 µg/mL | 8 µg/mL (≈ 14.4 µM) | 256 µg/mL (≈ 462 µM) | > 64 µg/mL | 64 µg/mL (≈ 115 µM) | > 256 µg/mL | > 64 µg/mL | > 64 µg/mL | 68 µg/mL (≈ 123 µM)
4 | C[C@@H](O)[C@H]1C(=O)N2C(C(=O)O)=C(S[C@@H]3CN[C@H](CNS(N)(=O)=O)C3)[C@H](C)[C@H]12 [Doripenem] | 16 µg/mL (≈ 38 µM) | > 64 µg/mL | 0.5 µg/mL (≈ 1.19 µM) | 32 µg/mL (≈ 76.1 µM) | 0.25 µg/mL (≈ 0.595 µM) | 256 µg/mL (≈ 609 µM) | 16 µg/mL (≈ 38 µM) | 32 µg/mL (≈ 76.1 µM) | 16 µg/mL (≈ 38 µM)
5 | C[C@@H](O)[C@H]1C(=O)N2C(C(=O)O)=C(S[C@@H]3CN[C@H](C(=O)Nc4cccc(C(=O)O)c4)C3)[C@H](C)[C@H]12 [Ertapenem] | 64 µg/mL (≈ 135 µM) | 0.5 µg/mL (≈ 1.05 µM) | 8 µg/mL (≈ 16.8 µM) | > 64 µg/mL | 2 µg/mL (≈ 4.21 µM) | > 256 µg/mL | 68 µg/mL (≈ 143 µM) | 64 µg/mL (≈ 135 µM) | 16 µg/mL (≈ 33.6 µM)
6 | C[C@@H](O)[C@H]1C(=O)N2C(C(=O)O)=C(SCCN=CN)C[C@H]12 [Imipenem] | 16 µg/mL (≈ 53.4 µM) | 4 µg/mL (≈ 13.4 µM) | 64 µg/mL (≈ 214 µM) | 32 µg/mL (≈ 107 µM) | 64 µg/mL (≈ 214 µM) | 32 µg/mL (≈ 107 µM) | > 64 µg/mL | 64 µg/mL (≈ 214 µM) | 256 µg/mL (≈ 855 µM)
7 | C[C@@H](O)[C@H]1C(=O)N2C(C(=O)O)=C(S[C@@H]3CN[C@H](C(=O)N(C)C)C3)[C@H](C)[C@H]12 [Meropenem] | 16 µg/mL (≈ 41.7 µM) | > 64 µg/mL | 1 µg/mL (≈ 2.61 µM) | 64 µg/mL (≈ 167 µM) | 0.25 µg/mL (≈ 0.652 µM) | 16 µg/mL (≈ 41.7 µM) | 16 µg/mL (≈ 41.7 µM) | 16 µg/mL (≈ 41.7 µM) | 16 µg/mL (≈ 41.7 µM)
8 | Cc1onc(-c2ccccc2)c1C(=O)N[C@@H]1C(=O)N2[C@@H]1SC(C)(C)[C@@H]2C(=O)O [Oxacillin] | > 64 µg/mL | 64 µg/mL (≈ 159 µM) | 256 µg/mL (≈ 638 µM) | > 64 µg/mL | > 256 µg/mL | > 256 µg/mL | > 64 µg/mL | > 64 µg/mL | 64 µg/mL (≈ 159 µM)
